# Assay results as given in patent US7135466B2 (Kirin Beer Kabushiki Kaisha, priority 1999, dated 2006).
# Target: T1, c-kit (Homo sapiens, UniProt P10721)
# T1 construct: MO7e (human megakaryocytic leukemia cell line) which had been arrested for 20 hr; endogenous in cells; host or cells: MO7e human megakaryocytic leukemia cell line
# Assay: Inhibitory activity against c-kit autophosphorylation (MO7e cells, h-SCF)
# Type: cell-based
# Conditions: MO7e cells, 50 ng/ml h-SCF; read-out: c-kit IC50
# Summary of the method: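 Growth-arrested (20 hr) MO7e; cpd in DMSO, 1 hr; h-SCF 50 ng/ml, 5 min; lyse. ELISA: anti-pTyr (PY-20) capture, anti-c-kit 1° Ab, HRP anti-rabbit 2° Ab, A450.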
# T1 sequence (P10721 26-976): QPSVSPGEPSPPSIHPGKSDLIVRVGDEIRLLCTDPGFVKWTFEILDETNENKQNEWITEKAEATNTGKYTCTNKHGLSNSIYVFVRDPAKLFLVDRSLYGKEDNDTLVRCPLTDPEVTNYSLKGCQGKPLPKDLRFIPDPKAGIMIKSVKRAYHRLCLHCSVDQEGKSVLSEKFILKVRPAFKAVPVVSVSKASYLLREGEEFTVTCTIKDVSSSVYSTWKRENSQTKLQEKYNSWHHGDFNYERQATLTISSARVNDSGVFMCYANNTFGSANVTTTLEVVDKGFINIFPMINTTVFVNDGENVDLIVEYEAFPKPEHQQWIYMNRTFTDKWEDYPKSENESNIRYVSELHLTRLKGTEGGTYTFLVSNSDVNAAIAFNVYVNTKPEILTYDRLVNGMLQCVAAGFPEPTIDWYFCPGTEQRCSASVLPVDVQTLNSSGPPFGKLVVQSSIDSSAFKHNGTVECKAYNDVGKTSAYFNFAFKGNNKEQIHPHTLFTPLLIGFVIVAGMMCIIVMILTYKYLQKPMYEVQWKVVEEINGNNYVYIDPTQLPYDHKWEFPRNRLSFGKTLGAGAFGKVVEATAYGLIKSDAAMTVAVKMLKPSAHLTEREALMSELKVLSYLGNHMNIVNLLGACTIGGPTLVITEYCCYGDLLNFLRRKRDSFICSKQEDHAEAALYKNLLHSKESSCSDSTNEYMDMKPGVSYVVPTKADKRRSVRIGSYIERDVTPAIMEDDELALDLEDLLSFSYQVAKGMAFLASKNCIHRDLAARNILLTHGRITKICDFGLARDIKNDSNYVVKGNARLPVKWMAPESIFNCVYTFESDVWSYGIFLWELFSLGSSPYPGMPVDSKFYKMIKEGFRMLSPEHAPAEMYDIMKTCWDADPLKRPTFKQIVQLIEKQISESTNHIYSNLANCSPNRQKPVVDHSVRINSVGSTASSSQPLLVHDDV
row,IC50 [nM],Molecule
1,80,"COc1cc2nccc(Oc3ccc(OCC(=O)Nc4cccc(C)c4)cc3)c2cc1OC [Example 784, N1-(3-Methylphenyl)-2-{4-[(6,7-dimethoxy-4-quinolyl)oxy]phenoxy}acetamide]"

# Same assay, conditions: MO7e cells, h-SCF 50 ng/ml; read-out: c-kit IC50
row,Molecule,IC50 [nM]
1,"COc1cc2nccc(Oc3ccc(NC(=O)SCc4ccc(C)cc4)c(C)c3C)c2cc1OC [Example 108, 4-Methylbenzyl {4-[(6,7-dimethoxy-4-quinolyl)oxy]-2,3-dimethylanilino}methanethioate]",180
2,"COc1cc2ncnc(Oc3ccc(NC(=O)OCc4ccccc4)c(Cl)c3)c2cc1OC [Example 225, Benzyl N-{2-chloro-4-[(6,7-dimethoxy-4-quinazolinyl)oxy]phenyl}carbamate]",453
3,"COc1cc2nccc(Oc3ccc(NC(=O)Oc4ccccc4)c(C)c3C)c2cc1OC [Example 217, Phenyl N-{4-[(6,7-dimethoxy-4-quinolyl)oxy]-2,3-dimethylphenyl}carbamate]",39

# Next, values leading:
row,IC50 [nM],Molecule
1,< 30,"COc1cc2nccc(Oc3ccc(NC(=O)OCc4ccccc4)c(C)c3C)c2cc1OC [Example 219, Benzyl N-{4-[(6,7-dimethoxy-4-quinolyl)oxy]-2,3-dimethylphenyl}carbamate]"
2,110,"4-Methylbenzyl {4-[(6,7-dimethoxy-4-quinazolinyl)oxy]anilino}methanethioate [Example 110]"
3,77,"COc1cc2ncnc(Oc3ccc(NC(=O)OCc4ccccc4)cc3)c2cc1OC [Example 220, Benzyl N-{4-[(6,7-dimethoxy-4-quinazolinyl)oxy]phenyl}carbamate]"

# Same assay, conditions: MO7e cells, h-SCF stimulation; read-out: c-kit IC50
row,Molecule,IC50 [nM]
1,"COc1cc2nccc(Oc3ccc(NC(=S)NC(=O)c4ccco4)cc3)c2cc1OC [Example 1033, N-{4-[(6,7-Dimethoxy-4-quinolyl)oxy]phenyl}-N′-(2-furylcarbonyl)thiourea]",177
2,"COc1cc2nccc(Oc3ccc(NC(=S)NC(=O)c4cccc(F)c4)c(F)c3)c2cc1OC [Example 937, N-{4-[(6,7-Dimethoxy-4-quinolyl)oxy]-2-fluorophenyl}-N′-(3-fluorobenzoyl)thiourea]",819
3,"COc1cc2nccc(Oc3ccc(NCCOc4ccc(C)cc4)cc3)c2cc1OC [Example 870, N-{4-[(6,7-Dimethoxy-4-quinolyl)oxy]phenyl}-N-[2-(4-methylphenoxy)ethyl]amine]",48
4,COc1cc2nccc(Oc3ccc(NC(=S)NC(=O)c4ccc(Cl)c(Cl)c4)cc3)c2cc1OC [Example 1120],778
5,"COc1cc2ncnc(Oc3ccc(NC(=S)NC(=O)c4ccc(F)cc4)cc3)c2cc1OC [Example 986, N-{4-[(6,7-Dimethoxy-4-quinazolinyl)oxy]phenyl}-N′-(4-fluorobenzoyl)thiourea]",264
6,"CCOc1ccc(C(=O)NC(=S)Nc2ccc(Oc3ccnc4cc(OC)c(OC)cc34)c(F)c2)cc1 [Example 990, N-{4-[(6,7-Dimethoxy-4-quinolyl)oxy]-3-fluorophenyl}-N′-(4-ethoxybenzoyl)thiourea]",481
7,"COc1cc2nccc(Oc3ccc(NC(=S)NC(=O)c4cc(C)oc4C)c(F)c3)c2cc1OC [Example 1037, N-{4-[(6,7-Dimethoxy-4-quinolyl)oxy]-2-fluorophenyl}-N′-[(2,5-dimethyl-3-furyl)carbonyl]-thiourea]",558
8,"COc1cc2ncnc(Oc3ccc(NC(=S)NC(=O)c4cccc(C)c4)cc3)c2cc1OC [Example 954, N-{4-[(6,7-Dimethoxy-4-quinazolinyl)-oxy]phenyl}-N′-(3-methylbenzoyl)thiourea]",131
9,"COc1cc2ncnc(Oc3ccc(NCCOc4ccccc4)cc3)c2cc1OC [Example 873, N-{4-[(6,7-Dimethoxy-4-quinazolinyl)oxy]phenyl}-N-(2-phenoxyethyl)amine]",69
10,"CCc1ccc(OCCNc2ccc(Oc3ccnc4cc(OC)c(OC)cc34)cc2)cc1 [Example 864, N-{4-[(6,7-Dimethoxy-4-quinolyl)oxy]phenyl}-N-[2-(4-ethylphenoxy)ethyl]amine]",32

# Next, values leading:
row,IC50 [nM],Molecule
1,187,"COc1cc2nccc(Oc3ccc(SCCOc4cccc(Cl)c4)cc3)c2cc1OC [Example 820, 4-(4-{[2-(3-Chlorophenoxy)ethyl]sufanyl}phenoxy)-6,7-dimethoxyquinoline]"
2,140,"COc1cccc(C(=O)NC(=S)Nc2ccc(Oc3ccnc4cc(OC)c(OC)cc34)c(F)c2)c1 [Example 944, N-{4-[(6,7-Dimethoxy-4-quinolyl)oxy]3-fluorophenyl}-N′-(3-methoxybenzoyl)thiourea]"
3,333,"COc1cc2nccc(Oc3ccc(SCCOc4ccc(Cl)cc4Cl)cc3)c2cc1OC [Example 825, 4-(4-{[2-(2,4-Dichlorophenoxy)ethyl]sulfanyl}phenoxy)-6,7-dimethoxyquinoline]"
4,124,"COc1cc2nccc(Oc3ccc(NC(=S)NC(=O)c4cccc(C(F)(F)F)c4)cc3Cl)c2cc1OC [Example 951, N-{3-Chloro-4-[(6,7-dimethoxy-4-quinolyl)oxy]phenyl}-N′-[3-(trifluoromethyl)benzoyl]-thiourea]"
5,32,"COc1cc2nccc(Oc3ccc(NCCOc4ccccc4O)cc3)c2cc1OC [Example 872, 2-(2-{4-[(6,7-Dimethoxy-4-quinolyl)oxy]anilino}ethoxy)phenol]"
6,175,"COc1cc2nccc(Oc3ccc(SCCOc4ccc(C)c(C)c4)cc3)c2cc1OC [Example 827, 4-(4-{[2-(3,4-Dimethylphenoxy)ethyl]sulfanyl}phenoxy)-6,7-dimethoxyquinoline]"
7,224,"COc1cccc(C(=O)NC(=S)Nc2ccc(Oc3ccnc4cc(OC)c(OC)cc34)c(Cl)c2)c1 [Example 950, N-{3-Chloro-4-[(6,7-dimethoxy-4-quinolyl)oxy]phenyl}-N′-(3-methoxybenzoyl)thiourea]"
8,233,"COc1cc2nccc(Oc3ccc(NC(=S)NC(=O)c4ccc(F)cc4)c(F)c3)c2cc1OC [Example 966, N-{4-[(6,7-Dimethoxy-4-quinolyl)oxy]-2-fluorophenyl}-N′-(4-fluorobenzoyl)thiourea]"
9,498,"COc1cc2nccc(Oc3ccc(NC(=S)NC(=O)c4ccccc4)cc3F)c2cc1OC [Example 911, N-Benzoyl-N′-{4-[(6,7-dimethoxy-4-quinolyl)oxy]-3-fluorophenyl}thiourea]"
10,405,"COc1cc2nccc(Oc3ccc(SCCOc4ccc(C)cc4)cc3)c2cc1OC [Example 814, 6,7-Dimethoxy-4-(4-{[2-(4-methylphenoxy)ethyl]sulfanyl}phenoxy)quinoline]"
11,263,"COc1cc2nccc(Oc3ccc(SCCCCOc4ccccc4F)cc3)c2cc1OC [Example 843, 4-(4-{[4-(2-Fluorophenoxy)butyl]sulfanyl}phenoxy)-6,7-dimethoxyquinoline]"
12,70,"COc1cc2nccc(Oc3ccc(NCCOc4ccccc4Cl)cc3)c2cc1OC [Example 868, N-[2-(2-Chlorophenoxy)ethyl]-N-{4-[(6,7-dimethoxy-4-quinolyl)oxy]phenyl}amine]"
13,208,"COc1cc2nccc(Oc3ccc(NC(=S)NC(=O)c4cccc(Cl)c4)cc3)c2cc1OC [Example 932, N-(3-Chlorobenzoyl)-N′-{4-[(6,7-dimethoxy-4-quinolyl)oxy]phenyl}thiourea]"
14,326,"COc1cccc(OCCSc2ccc(Oc3ccnc4cc(OC)c(OC)cc34)cc2)c1 [Example 812, 6,7-Dimethoxy-4-(4-{[2-(3-methoxyphenoxy)ethyl]sulfanyl}phenoxy)quinoline]"

# Same assay, conditions: Mo7e, figure in parentheses in −( ); at 1000 nM
row,Molecule,inhibition at 1 µM [%]
1,"COc1ccc(C(=O)NC(=S)Nc2ccc(Oc3ccnc4cc(OC)c(OC)cc34)cc2F)cc1 [Example 969, N-{4-[(6,7-Dimethoxy-4-quinolyl)oxy]-2-fluorophenyl}-N′-(4-methoxybenzoyl)thiourea]",19
2,"COc1cc2nccc(Oc3ccc(NC(=S)NC(=O)c4ccccc4Cl)c(C)c3C)c2cc1OC [Example 1078, N-(2-Chlorobenzoyl)-N′-{4-[(6,7-dimethoxy-4-quinolyl)oxy]-2,3-dimethylphenyl}thiourea]",32
3,"COc1cc2nccc(Oc3ccc(NC(=S)NC(=O)c4ccccc4OC)cc3)c2cc1OC [Example 901, N-{4-[(6,7-Dimethoxy-4-quinolyl)oxy]phenyl}-N′-(2-methoxybenzoyl)thiourea]",27
4,"COc1cc2nccc(Oc3ccc(NC(=S)NC(=O)c4ccccc4C)cc3Cl)c2cc1OC [Example 919, N-{3-Chloro-4-[(6,7-dimethoxy-4-quinolyl)oxy]phenyl}-N′-(2-methylbenzoyl)thiourea]",11
5,"COc1cc2nccc(Oc3ccc(NC(=S)NC(=O)c4ccc(I)cc4)cc3Cl)c2cc1OC [Example 981, N-{3-Chloro-4-[(6,7-dimethoxy-4-quinolyl)oxy]phenyl}-N′-(4-iodobenzoyl)thiourea]",47

# Second part, the molecule after the results:
row,inhibition at 1 µM [%],Molecule
1,34,"COc1cc2nccc(Oc3ccc(NC(=S)NC(=O)c4ccccc4)c(F)c3)c2cc1OC [Example 903, N-Benzoyl-N′-{4-[(6,7-dimethoxy-4-quinolyl)oxy]-2-fluorophenyl}thiourea]"
2,28,"COc1cc2nccc(Oc3ccc(NC(=S)NC(=O)c4ccc(Cl)cc4)c(C)c3)c2cc1OC [Example 1089, N-(4-Chlorobenzoyl)-N′-{4-[(6,7-dimethoxy-4-quinolyl)oxy]-2-methylphenyl}thiourea]"
3,11,"COc1cc2nccc(Oc3ccc(NC(=S)NC(=O)c4c(F)cccc4F)cc3Cl)c2cc1OC [Example 1020, N-{3-Chloro-4-[(6,7-dimethoxy-4-quinolyl)oxy]phenyl}-N′-(2,6-difluorobenzoyl)thiourea]"
4,8,"COc1cc2nccc(Oc3ccc(NC(=S)NC(=O)c4ccccc4Cl)c(C)c3)c2cc1OC [Example 1097, N-(2-Chlorobenzoyl)-N′-{4-[(6,7-dimethoxy-4-quinolyl)oxy]-2-methylphenyl}thiourea]"
